The target in this experiment is Elastase (Pseudomonas aeruginosa (strain ATCC 15692 / DSM 22644 / CIP 104116 / JCM 14847 / LMG 12228 / 1C / PRS 101 / PAO1), UniProt P14756). In words: Antagonist activity at Pseudomonas aeruginosa LasB using Abz-Ala-Gly-Leu-Ala-p-Nitro-Benzyl-Amide as substrate incubated for 30 mins prior to substrate addition by FRET assay.

We go through two molecules from BindingDB's records for doi:10.1021/ml300128f (The Scripps Research Institute, 2012).

The IC50 is the midpoint of a concentration-inhibition curve.

Sequence of Elastase (P14756 whole entry): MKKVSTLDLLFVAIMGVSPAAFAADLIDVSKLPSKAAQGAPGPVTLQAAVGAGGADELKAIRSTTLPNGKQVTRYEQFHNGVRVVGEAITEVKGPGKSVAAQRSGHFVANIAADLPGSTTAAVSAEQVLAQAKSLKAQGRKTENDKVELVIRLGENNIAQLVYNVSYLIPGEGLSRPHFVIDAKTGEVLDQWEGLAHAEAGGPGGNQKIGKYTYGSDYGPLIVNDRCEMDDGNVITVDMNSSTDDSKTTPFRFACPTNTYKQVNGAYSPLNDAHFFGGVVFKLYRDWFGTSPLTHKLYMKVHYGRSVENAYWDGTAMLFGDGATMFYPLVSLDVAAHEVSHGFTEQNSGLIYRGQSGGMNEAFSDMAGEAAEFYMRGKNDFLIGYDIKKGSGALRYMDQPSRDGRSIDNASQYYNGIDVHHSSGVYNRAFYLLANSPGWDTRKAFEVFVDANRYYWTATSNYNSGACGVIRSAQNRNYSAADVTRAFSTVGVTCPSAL

For the molecule `CCc1c(O)c(=S)ccn1CC`, the IC50 stood at 392 µM. Turning to `Cc1c(O)c(=S)ccn1C`, the IC50 came to 80.6 µM.
